Assay results from patent US9993494B2, “Compositions and methods for treating fibrotic disease” (eFFECTOR Therapeutics, Inc., priority 2014, dated 2018).

System: normal human lung fibroblasts
Assay: Ribosomal profiling: translational efficiency in TGFβ-treated fibroblasts
Type: cell-based
Details: TGFβ-treated fibroblasts
Method in brief: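 Genome-wide RPF and total RNA libraries (ARTseq, RNA-Seq) were made from lysates of cycloheximide-treated, PBS-washed cells. After trimming and human-genome mapping, per-gene coding-region counts were compared between RPF and RNA for translational efficiency. Genes scoring low in either fraction were dropped.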

Cc1ccc(=O)n(-c2ccccc2)c1 [pirfenidone, 5-methyl-1-phenylpyridin-2-one]
− (− = <0.9): renormalizing the translational profile of RHOBTB3 (ENSG00000164292) | renormalizing the translational profile of HCN1 (ENSG00000164588) | renormalizing the translational profile of RP11-382A20.3.1 (ENSG00000166503) | renormalizing the translational profile of RPL13 (ENSG00000167526) | renormalizing the translational profile of MURC (ENSG00000170681) | renormalizing the translational profile of HTRA3 (ENSG00000170801) | renormalizing the translational profile of PDE7B (ENSG00000171408) | renormalizing the translational profile of LPAR3 (ENSG00000171517) | renormalizing the translational profile of CTPS (ENSG00000171793) | renormalizing the translational profile of QARS (ENSG00000172053) | renormalizing the translational profile of RPL38 (ENSG00000172809) | renormalizing the translational profile of MRPL45 (ENSG00000174100) | renormalizing the translational profile of RPL15 (ENSG00000174748) | renormalizing the translational profile of DES (ENSG00000175084) | renormalizing the translational profile of EIF3F (ENSG00000175390) | renormalizing the translational profile of CLCF1 (ENSG00000175505) | renormalizing the translational profile of C14orf49 (ENSG00000176438) | renormalizing the translational profile of IMPDH2 (ENSG00000178035) | renormalizing the translational profile of LENG9 (ENSG00000182909) | renormalizing the translational profile of C22orf32 (ENSG00000183172) | renormalizing the translational profile of NPW (ENSG00000183971) | renormalizing the translational profile of ROBO2 (ENSG00000185008) | renormalizing the translational profile of PTCH1 (ENSG00000185920) | renormalizing the translational profile of POLR1D (ENSG00000186184) | renormalizing the translational profile of DYNC2H1 (ENSG00000187240) | renormalizing the translational profile of RPL14 (ENSG00000188846) | renormalizing the translational profile of LRRK2 (ENSG00000188906) | renormalizing the translational profile of LAMB3 (ENSG00000196878) | renormalizing the translational profile of PCBP2 (ENSG00000197111) | renormalizing the translational profile of MAP3K5 (ENSG00000197442) | renormalizing the translational profile of LPAR1 (ENSG00000198121) | renormalizing the translational profile of RPL23A (ENSG00000198242) | renormalizing the translational profile of PLN (ENSG00000198523) | renormalizing the translational profile of RPL10A (ENSG00000198755) | renormalizing the translational profile of CES1 (ENSG00000198848) | renormalizing the translational profile of RPL39 (ENSG00000198918) | renormalizing the translational profile of CARD16 (ENSG00000204397) | renormalizing the translational profile of MICA (ENSG00000204520) | renormalizing the translational profile of RPL41 (ENSG00000229117) | renormalizing the translational profile of ARPC1A (ENSG00000241685) | renormalizing the translational profile of EEF1G (ENSG00000254772) | effect in renormalizing the translational profile of the gene (gene RPS2 (ENSG00000140988)) | effect in renormalizing the translational profile of the gene (gene RPS3 (ENSG00000149273)) | effect in renormalizing the translational profile of the gene (gene RPS3A (ENSG00000145425)) | effect in renormalizing the translational profile of the gene (gene RPS4X (ENSG00000198034)) | effect in renormalizing the translational profile of the gene (gene RPS4Y1 (ENSG00000129824)) | effect in renormalizing the translational profile of the gene (gene RPS6 (ENSG00000137154))
++ (++ = 1.5 to 2.0): renormalizing the translational profile of CA5B (ENSG00000169239)
35 genes: number of genes whose translational efficiency was uniquely modulated by the compound (duplicate ribosomal profiles)
+++ (+++ = >2.0): renormalizing the translational profile of CHCHD10 (ENSG00000250479)
+ (+ = 0.9 to 1.5): renormalizing the translational profile of RPL9 (ENSG00000163682) | renormalizing the translational profile of RPL27A (ENSG00000166441) | renormalizing the translational profile of ANKDD1A (ENSG00000166839) | renormalizing the translational profile of EEF2 (ENSG00000167658) | renormalizing the translational profile of RPL4 (ENSG00000174444) | renormalizing the translational profile of AMIGO3 (ENSG00000176020) | renormalizing the translational profile of RPLP2 (ENSG00000177600) | renormalizing the translational profile of DNAJC22 (ENSG00000178401) | renormalizing the translational profile of RPL35A (ENSG00000182899) | renormalizing the translational profile of PDE4B (ENSG00000184588) | renormalizing the translational profile of NACA (ENSG00000196531) | renormalizing the translational profile of RPL37A (ENSG00000197756) | renormalizing the translational profile of RPL12 (ENSG00000197958) | renormalizing the translational profile of GNB2L1 (ENSG00000204628) | renormalizing the translational profile of RPL17 (ENSG00000215472) | effect in renormalizing the translational profile of the gene (gene RPS5 (ENSG00000083845))
